Values of other authors in patent US9895453B1, “Shiny ultrasound gel” (priority 2016, dated 2018).

Tests used:
[1] = test system: Staph aureus
[2] = test system: E. Coli
[3] = test system: Ps. aeruginosa
[4] = test system: Ps. cepacia; conditions: initial inoculum 2.7 × 10^6 per gram product, 0.7% Suttocide A
[5] = test system: C. ablicans
[6] = test system: A. niger

## O=C([O-])CNCO.[Na+] [Suttocide® A, Sodium Hydroxymethylglycinate]
[1]; Staph aureus, 48 hours, initial inoculum 7.3 × 10^6 per gram product, 0.7% Suttocide A
  organism growth (count) at 48 hours: <10
[1]; Staph aureus, 7 days, initial inoculum 7.3 × 10^6 per gram product, 0.7% Suttocide A
  organism growth (count) at 7 days: <10
[1]; Staph aureus, 28 days, initial inoculum 7.3 × 10^6 per gram product, 0.7% Suttocide A
  organism growth (count) at 28 days: <10
[1]; Staphylococcus aureus, TABLE 1
  kills at a concentration of: 0.7%
[2]; E. Coli, 48 hours, initial inoculum 6.0 × 10^6 per gram product, 0.7% Suttocide A
  organism growth (count) at 48 hours: <10
[2]; E. Coli, 7 days, initial inoculum 6.0 × 10^6 per gram product, 0.7% Suttocide A
  organism growth (count) at 7 days: <10
[2]; E. Coli, 28 days, initial inoculum 6.0 × 10^6 per gram product, 0.7% Suttocide A
  organism growth (count) at 28 days: <10
[2]; Escheria coli, TABLE 1
  kills at a concentration of: 0.7%
[3]; Ps. aeruginosa, 48 hours, initial inoculum 9.5 × 10^6 per gram product, 0.7% Suttocide A
  organism growth (count) at 48 hours: <10
[3]; Ps. aeruginosa, 7 days, initial inoculum 9.5 × 10^6 per gram product, 0.7% Suttocide A
  organism growth (count) at 7 days: <10
[3]; Ps. aeruginosa, 28 days, initial inoculum 9.5 × 10^6 per gram product, 0.7% Suttocide A
  organism growth (count) at 28 days: <10
[3]; Pseudomonas aeruginosa, TABLE 1
  kills at a concentration of: 0.7%
[4]; 48 hours
  organism growth (count) at 48 hours: <10
[4]; 7 days
  organism growth (count) at 7 days: <10
[4]; 28 days
  organism growth (count) at 28 days: <10
[5]; C. ablicans, 48 hours, initial inoculum 4.3 × 10^6 per gram product, 0.7% Suttocide A
  organism growth (count) at 48 hours: <10
[5]; C. ablicans, 7 days, initial inoculum 4.3 × 10^6 per gram product, 0.7% Suttocide A
  organism growth (count) at 7 days: <10
[5]; C. ablicans, 28 days, initial inoculum 4.3 × 10^6 per gram product, 0.7% Suttocide A
  organism growth (count) at 28 days: <10
[5]; candida albicans, TABLE 1
  kills at a concentration of: 0.7%
[6]; A. niger, 48 hours, initial inoculum 8.0 × 10^6 per gram product, 0.7% Suttocide A
  organism growth (count) at 48 hours: <10
[6]; A. niger, 7 days, initial inoculum 8.0 × 10^6 per gram product, 0.7% Suttocide A
  organism growth (count) at 7 days: <10
[6]; A. niger, 28 days, initial inoculum 8.0 × 10^6 per gram product, 0.7% Suttocide A
  organism growth (count) at 28 days: <10
[6]; Aspergillus niger (Aspergillus brasiliensis), TABLE 1
  kills at a concentration of: 0.7%
